Results on 11 compounds are retold here after patent publication US11299510B2, “Substituted pyridopyrrolopyrimidine ribonucleosides for therapeutic uses” (USTAV ORGANICKE CHEMIE A BIOCHEMIE AV CR, V.V.I., priority 2018, dated 2022).

pIC50: −log10 of the molar value.

What all share (type): cell-based
In experiment [1] the test system is K562-Tax (human acute myeloid leukemia, paclitaxel resistant subline). Put plainly: cytotoxic MTS test, K562-TAX. To be noted: K562-TAX cells. The source says:
(§1) To evaluate the antitumor activity of newly prepared compounds for in vitro conditions, we used cytotoxic MTS test (Nosková V. et al., Neoplasma 2002, 49, 418-425) on cell lines derived from normal tissues or tumors. Specifically, cell lines K562 (human acute myeloid leukemia); K562-Tax (human acute myeloid leukemia, paclitaxel resistant subline, overexpress multiple drug resistant protein PgP); CEM (T-lymfoblastic leukemia); CEM-DNR-bulk (T-lymfoblastic leukemia, doxorubicin resistant); A549 (human lung adenocarcinoma); HCT116p53 wt (human colorectal cancer, wild-type); HCT116p53−/−(human colorectal cancer, mutant p53) a U2OS (human bone osteosarcoma) were used. Express characteristics, susceptibility profiles of classic antitumor drugs as well as methodology of cytotoxic MTS test have been repeatedly published (Denizot, F.; Lang, R., J. Immunol. Meth. 1986, 89, 271-277; Noskova, V., see above; Šarek J. et al., J, Med. Chem., 2003, 46, 5402-5415).

For the next experiment, the system named is CCRF-CEM. As to the kind of experiment: cytotoxic MTS test, CCRF-CEM. To be noted: Homo sapiens; CCRF-CEM cells.
Description: as §1
(In general: Tetrazolium assays rely on reduction of a dye to a coloured formazan, in cell work by metabolically active cells.)

In experiment [2] the test system is K562 (human acute myeloid leukemia). Put plainly: cytotoxic MTS test, K562. To be noted: K562 cells.
Description: as §1

In another experiment the test system is HL 60. Put plainly: cytotoxic MTS test, HL 60. To be noted: Homo sapiens; HL 60 cells.
Another experiment relates to Hep G2. Put plainly: cytotoxic MTS test, Hep G2. To be noted: Homo sapiens, HepG2; Hep G2 cells.
In experiment [3] the test system is BJ (normal human fibroblasts). Put plainly: cytotoxic MTS test, BJ. To be noted: BJ cells.
Experiment [4] deals with CEM-DNR-bulk (T-lymfoblastic leukemia, doxorubicin resistant). Put plainly: cytotoxic MTS test, CEM-DNR. To be noted: Homo sapiens; CEM-DNR cells.
Description: as §1

Another experiment deals with HeLa. As to the kind of experiment: cytotoxic MTS test, HeLa. To be noted: Homo sapiens; HeLa cells.
Experiment [5] has as its system HCT116p53 wt (human colorectal cancer, wild-type). As to the kind of experiment: cytotoxic MTS test, HCT116. To be noted: HCT-116, HCT116 cells.
Description: as §1

Experiment [6] relates to U2OS (human bone osteosarcoma). Put plainly: cytotoxic MTS test, U2OS. To be noted: U2OS cells.
Description: as §1

The subject of experiment [7] is CEM (T-lymfoblastic leukemia). Put plainly: cytotoxic MTS test, CEM. To be noted: Homo sapiens, CCRF-CEM; CEM cells.
Description: as §1

In experiment [8] the test system is A549 (human lung adenocarcinoma). Put plainly: cytotoxic MTS test, A549. To be noted: A549 cells.
Description: as §1

For experiment [9], the system named is MRC-5 (normal human fibroblasts). As to the kind of experiment: cytotoxic MTS test, MRC-5. To be noted: MRC5, MRC-5 cells.
Experiment [10] has as its system HCT116p53−/− (human colorectal cancer, mutant p53). As to the kind of experiment: cytotoxic MTS test, HCT116p53. To be noted: HCT116p53 cells.
Description: as §1

With `COc1ncnc2c1c1ncccc1n2[C@@H]1O[C@H](CO)[C@@H](O)[C@H]1O` [Compound 1a, 4-methoxy-9-(β-D-ribofuranosyl)-9H-pyrido[2′,3′:4,5]pyrrolo[2,3-d]pyrimidine], the pIC50 (in [1]; in the experiment on CCRF-CEM; in [2]; with HL 60; with Hep G2; in experiment [3]) was less than 4.30 each time. Also, the pIC50 (in experiment [4]; with HeLa; in experiment [5]; in experiment [6]; in experiment [7]; in [8]) was less than 4.30 in each case. In addition, the pIC50 in [9] and in [10] was less than 4.30 in each case.

As to `Cc1ncnc2c1c1ccncc1n2[C@@H]1O[C@H](CO)[C@@H](O)[C@H]1O` [Compound 2d, 4-methyl-9-(β-D-ribofuranosyl)-9H-pyrido[4′,3′:4,5]pyrrolo[2,3-d]pyrimidine], the pIC50 in experiment [1] is 5.00 to 6.05; in the experiment with CCRF-CEM, 6.05 to 6.70; in experiment [2], 5.00 to 6.05; in the experiment on HL 60 it was 6.05 to 6.70; with Hep G2, 5.00 to 6.05; in experiment [3] it was 5.00 to 6.05. Further, the pIC50 in [4] was 5.00 to 6.05; in the experiment on HeLa it was 5.00 to 6.05; in [5] it was 5.00 to 6.05; in [6], 5.00 to 6.05; in experiment [7] it was 6.05 to 6.70; in [8], less than 4.30. The pIC50 is less than 4.30 in experiment [9] and 5.00 to 6.05 in experiment [10].

As for `OC[C@H]1O[C@@H](n2c3cnccc3c3c(-c4ccsc4)ncnc32)[C@H](O)[C@@H]1O` [Compound 2h, 4-(thiophen-3-yl)-9-(β-D-ribofuranosyl)-9H-pyrido[4′,3′:4,5]pyrrolo[2,3-d]pyrimidine], the pIC50 (in experiment [1]; with CCRF-CEM; in experiment [2]; in the experiment with HL 60; with Hep G2; in experiment [3]) was less than 4.30 in each case. The pIC50 (in experiment [4]; with HeLa; in experiment [5]; in experiment [6]; in experiment [7]; in [8]) was less than 4.30 each time. Besides, the pIC50 in [9] and in [10] was less than 4.30 each time.

As for `OC[C@H]1O[C@@H](n2c3cnccc3c3c(-c4cc5ccccc5o4)ncnc32)[C@H](O)[C@@H]1O` [Compound 2i, 4-(benzofuran-2-yl)-9-(β-D-ribofuranosyl)-9H-pyrido[4′,3′:4,5]pyrrolo[2,3-d]pyrimidine], the pIC50 is 4.60 to 5.00 in experiment [1]; 5.00 to 6.05 with CCRF-CEM; 4.60 to 5.00 in [2]; less than 4.30 in the experiment on HL 60; less than 4.30 with Hep G2; 4.30 to 4.60 in experiment [3]. Moreover, the pIC50 in experiment [4] is 4.60 to 5.00; with HeLa, less than 4.30; in experiment [5] it was 5.00 to 6.05; in [6], 4.60 to 5.00; in experiment [7] it was less than 4.30; in experiment [8] it was 4.60 to 5.00. Also, the pIC50 in [9] and in [10] was 4.60 to 5.00 in each case.

On to `Nc1ncnc2c1c1ncccc1n2[C@@H]1O[C@H](CO)[C@@H](O)[C@H]1O` [Compound 1c, 4-amino-9-(β-D-ribofuranosyl)-9H-pyrido[2′,3′:4,5]pyrrolo[2,3-d]pyrimidine], for which the pIC50 in experiment [1] is less than 4.30; in the experiment on CCRF-CEM, 6.05 to 6.70; in experiment [2], 4.30 to 4.60; with HL 60, 6.05 to 6.70; in the experiment on Hep G2, 5.00 to 6.05; in experiment [3], 5.00 to 6.05. Also, the pIC50 in [4] is less than 4.30; in the experiment with HeLa, less than 4.30; in [5], 4.30 to 4.60; in experiment [6], 5.00 to 6.05; in [7] it was less than 4.30; in experiment [8], less than 4.30. In addition, the figures for the negative logarithm of the IC50 (pIC50) in experiment [9] and in experiment [10] were less than 4.30 and 4.30 to 4.60, respectively.

`Cc1ncnc2c1c1ncccc1n2[C@@H]1O[C@H](CO)[C@@H](O)[C@H]1O` [Compound 1d, 4-methyl-9-(β-D-ribofuranosyl)-9H-pyrido[2′,3′:4,5]pyrrolo[2,3-d]pyrimidine]: the pIC50 is less than 4.30 in experiment [1]; 6.05 to 6.70 in the experiment on CCRF-CEM; 4.60 to 5.00 in experiment [2]; less than 4.30 in the experiment on HL 60; less than 4.30 in the experiment on Hep G2; less than 4.30 in [3]. Further, the negative logarithm of the IC50 (pIC50) in experiment [4] was less than 4.30; in the experiment on HeLa, less than 4.30; in [5] it was less than 4.30; in experiment [6] it was 5.00 to 6.05; in experiment [7], less than 4.30; in [8], less than 4.30. The pIC50 in [9] and in [10] was less than 4.30 each time.

In the case of `OC[C@H]1O[C@@H](n2c3cnccc3c3c(-c4ccco4)ncnc32)[C@H](O)[C@@H]1O` [Compound 2f, 4-(furan-2-yl)-9-(β-D-ribofuranosyl)-9H-pyrido[4′,3′:4,5]pyrrolo[2,3-d]pyrimidine], the pIC50 (in experiment [1]; in the experiment on CCRF-CEM; in [2]; with HL 60; in the experiment with Hep G2; in experiment [3]) was less than 4.30 in each case. The pIC50 (in experiment [4]; in the experiment on HeLa; in experiment [5]; in experiment [6]; in experiment [7]; in experiment [8]) was less than 4.30 throughout. Also, the pIC50 in [9] and in experiment [10] was less than 4.30 each time.

As to `COc1ncnc2c1c1ccncc1n2[C@@H]1O[C@H](CO)[C@@H](O)[C@H]1O` [Compound 2a, 4-methoxy-9-(β-D-ribofuranosyl)-9H-pyrido[4′,3′:4,5]pyrrolo[2,3-d]pyrimidine], the pIC50 in experiment [1] was 5.00 to 6.05; in the experiment with CCRF-CEM it was 6.05 to 6.70; in [2], 5.00 to 6.05; in the experiment with HL 60 it was 6.05 to 6.70; in the experiment with Hep G2, 5.00 to 6.05; in experiment [3], less than 4.30. Besides, the pIC50 in experiment [4] is 5.00 to 6.05; in the experiment with HeLa it was 5.00 to 6.05; in experiment [5], 5.00 to 6.05; in [6], 5.00 to 6.05; in experiment [7], 5.00 to 6.05; in [8], less than 4.30. Besides, the pIC50 in experiment [9] was less than 4.30; in [10], 5.00 to 6.05.

As to `OC[C@H]1O[C@@H](n2c3cnccc3c3c(-c4ccoc4)ncnc32)[C@H](O)[C@@H]1O` [Compound 2g, 4-(furan-3-yl)-9-(β-D-ribofuranosyl)-9H-pyrido[4′,3′:4,5]pyrrolo[2,3-d]pyrimidine], the negative-log IC50 (pIC50) (in [1]; in the experiment on CCRF-CEM; in experiment [2]; in the experiment on HL 60; in the experiment with Hep G2; in experiment [3]) was less than 4.30 throughout. Also, the pIC50 (in experiment [4]; in the experiment on HeLa; in experiment [5]; in [6]; in [7]; in experiment [8]) was less than 4.30 throughout. Moreover, the pIC50 in experiment [9] and in experiment [10] was less than 4.30 each time.

As to `OC[C@H]1O[C@@H](n2c3cccnc3c3c(-c4ccoc4)ncnc32)[C@H](O)[C@@H]1O` [Compound 1g, 4-(furan-3-yl)-9-(β-D-ribofuranosyl)-9H-pyrido[2′,3′:4,5]pyrrolo[2,3-d]pyrimidine], the pIC50 (in [1]; in the experiment with CCRF-CEM; in experiment [2]; in the experiment with HL 60; with Hep G2; in experiment [3]) was less than 4.30 in each case. In addition, the pIC50 (in experiment [4]; in the experiment on HeLa; in experiment [5]; in experiment [6]; in experiment [7]; in experiment [8]) was less than 4.30 throughout. In addition, the pIC50 in experiment [9] and in experiment [10] was less than 4.30 each time.

As for `OC[C@H]1O[C@@H](n2c3cccnc3c3c(-c4ccco4)ncnc32)[C@H](O)[C@@H]1O` [Compound 1f, 4-(furan-2-yl)-9-(β-D-ribofuranosyl)-9H-pyrido[2′,3′:4,5]pyrrolo[2,3-d]pyrimidine], the pIC50 (in [1]; in the experiment with CCRF-CEM; in experiment [2]; in the experiment with HL 60; with Hep G2; in experiment [3]) was less than 4.30 each time. In addition, the pIC50 (in [4]; in the experiment on HeLa; in [5]; in experiment [6]; in experiment [7]; in [8]) was less than 4.30 each time. The pIC50 in experiment [9] and in experiment [10] was less than 4.30 in each case.

The pIC50 is −log10 of the IC50, conventionally taken in molar units.
